Here are results for one molecule from US20140178315A1, “Topical Compositions Comprising Ionic Fluids” (Arch Chemicals, Inc., priority 2012, published 2014).

For this series the following is noted: 3 g salt added to 21 g anhydrous betaine glycolate ionic fluid; heated at 105° C. for 2 hours; remained a viscous fluid after cooling to room temperature.

Take `C[N+](C)(C)CC(=O)O.O=c1cc(CO)occ1[O-]` [betaine kojiate]: the “Solubility of betaine kojiate in betaine glycolate ionic fluid (appearance of the mixture)” value is reported as “formed a clear fluid”.
